Results taken from article PMC12627810 (Nature Communications, 2025).
Values joined by “and” are separate entries in the source; they are usually repeats but may differ in a detail not shown here. Equal values may be shown once. Read-outs that look alike come from different tables or passages of the source.

Legend:
SERT allosteric site = conditions: S1-bound [3H]imipramine; cited from earlier work
SERT WT [1] = target: T1, SERT WT (Homo sapiens, UniProt P31645); conditions: previous study; cited from earlier work
T1 sequence (P31645 whole entry): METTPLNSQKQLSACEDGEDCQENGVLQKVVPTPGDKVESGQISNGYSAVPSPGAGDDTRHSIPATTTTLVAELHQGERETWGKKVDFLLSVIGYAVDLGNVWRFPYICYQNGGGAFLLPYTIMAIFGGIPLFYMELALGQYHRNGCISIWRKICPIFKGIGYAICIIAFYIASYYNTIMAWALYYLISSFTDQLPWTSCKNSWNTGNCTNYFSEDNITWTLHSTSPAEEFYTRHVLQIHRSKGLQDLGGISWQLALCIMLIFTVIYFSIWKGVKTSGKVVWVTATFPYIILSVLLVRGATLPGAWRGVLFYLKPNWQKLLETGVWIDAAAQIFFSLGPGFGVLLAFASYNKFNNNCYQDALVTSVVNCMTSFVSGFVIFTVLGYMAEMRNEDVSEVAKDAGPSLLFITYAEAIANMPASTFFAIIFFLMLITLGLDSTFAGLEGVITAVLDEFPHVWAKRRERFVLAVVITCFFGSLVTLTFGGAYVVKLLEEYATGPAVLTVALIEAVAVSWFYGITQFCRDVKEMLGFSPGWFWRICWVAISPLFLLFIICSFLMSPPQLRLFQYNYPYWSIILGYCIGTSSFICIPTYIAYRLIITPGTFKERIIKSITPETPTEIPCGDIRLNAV

SERT V86Anap (purified) = test: Anap fluorescence emission spectra, SERT V86Anap; design: species or system human; conditions: 200 nM ligand
SERT F556Anap (purified) [2] = test: Anap fluorescence emission spectra, SERT F556Anap; design: species or system human; conditions: 200 nM ligand
[3] = system: SERT-expressing membranes; conditions: cited from earlier work
SERT WT [4] = target: T1, SERT WT; test: [3H]5-HT uptake inhibition, intact COS-7 cells expressing SERT WT; format: cell-based
SERT F556Anap (purified) [5] = test: Real-time Anap fluorescence measurements, SERT F556Anap; format: binding, human; conditions: 200 nM vilazodone after 30 min preincubation with 100 nM imipramine, Na+

N#Cc1ccc2[nH]cc(CCCCN3CCN(c4ccc5oc(C(N)=O)cc5c4)CC3)c2c1 [vilazodone]
allosteric potency (inhibition of dissociation of pre-bound [3H]imipramine) (SERT allosteric site): 14 nM and ~ 14 nM
Hill coefficient of inhibition of [3H]5-HT uptake (SERT WT [1]): 1.8 and ~ 1.8
change of V86Anap fluorescence emission (SERT V86Anap (purified); 200 mM K+): increasing the fluorescence
change of V86Anap fluorescence emission (SERT V86Anap (purified); 200 mM Na+): decreased the fluorescence
change of F556Anap fluorescence emission (SERT F556Anap (purified) [2]; 200 mM K+): red-shifted and increase in fluorescence
change of F556Anap fluorescence emission (SERT F556Anap (purified) [2]; 200 mM NMDG+): decrease in quantum yield and a blue-shift
change of F556Anap fluorescence emission (SERT F556Anap (purified) [2]; 200 mM Na+): large decrease in intensity accompanied by a blue-shift
affinity, SERT-expressing membranes ([3]; K+): 36.7 nM
affinity, SERT-expressing membranes ([3]; Na+): 5.8 nM
Hill coefficient (vilazodone) (SERT WT [4]; SERT WT): > 1
5-HT uptake inhibition by vilazodone in presence of Fab 15B8 (SERT WT [4]; preincubation with 100 nM Fab 15B8 vs buffer, whole cells): unchanged
τ of time-dependent change in fluorescence, imipramine-bound SERT (SERT F556Anap (purified) [5]): 0.8 ± 0.18 min
